From the supplement of paper PMC10307832

How the values were obtained:
Experiment in all cases: relative viability (nuclei count vs DMSO), 5 days (fraction); higher = more cells survive
[1] = compound: CN(C)C[C@@H]1CCn2cc(c3ccccc32)C2=C(C(=O)NC2=O)c2cn(c3ccccc23)CCO1 [Ruboxistaurin] + CC(=O)c1c(C)c2cnc(Nc3ccc(N4CCNCC4)cn3)nc2n(C2CCCC2)c1=O [Palbociclib] (partner 0.5 µM)
Procedure, shortened: (§1)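 One day after seeding in 1536-well plates, lung cancer cell lines were dosed by pin tool. Dosing was either single-drug or a fixed anchor-drug dose plus five library-drug doses (not always all listed) in √10 steps. After 5 days, nuclei were stained in one fix-and-stain step and counted on 4× images, and relative viability is the nuclei count of treated wells over that of vehicle wells, given as the median of duplicate plates.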

[2] = compound: CN(C)C[C@@H]1CCn2cc(c3ccccc32)C2=C(C(=O)NC2=O)c2cn(c3ccccc23)CCO1 [Ruboxistaurin] + CCNC(=O)c1noc(-c2cc(C(C)C)c(O)cc2O)c1-c1ccc(CN2CCOCC2)cc1 [Luminespib] (partner 0.01 µM)
Procedure, shortened: as §1

[3] = compound: CN(C)C[C@@H]1CCn2cc(c3ccccc32)C2=C(C(=O)NC2=O)c2cn(c3ccccc23)CCO1 [Ruboxistaurin] + C[C@]1(O)C[C@@H](c2nc(-c3ccc4ccc(-c5ccccc5)nc4c3)c3c(N)nccn32)C1 [Linsitinib] (partner 1 µM)
Procedure, shortened: as §1

Ruboxistaurin + AZD7762 = compound: CN(C)C[C@@H]1CCn2cc(c3ccccc32)C2=C(C(=O)NC2=O)c2cn(c3ccccc23)CCO1 [Ruboxistaurin] + NC(=O)Nc1cc(-c2cccc(F)c2)sc1C(=O)N[C@H]1CCCNC1 [AZD7762] (partner 0.2 µM)
Procedure, shortened: as §1

Ruboxistaurin + Olaparib = compound: CN(C)C[C@@H]1CCn2cc(c3ccccc32)C2=C(C(=O)NC2=O)c2cn(c3ccccc23)CCO1 [Ruboxistaurin] + O=C(c1cc(Cc2n[nH]c(=O)c3ccccc23)ccc1F)N1CCN(C(=O)C2CC2)CC1 [Olaparib] (partner 8 µM)
Procedure, shortened: as §1

| Cell Line | relative viability ([1]; first compound 0.08 µM) | relative viability ([1]; first compound 0.8 µM) | relative viability ([1]; first compound 2.53 µM) | relative viability ([1]; first compound 8 µM) | relative viability ([2]; first compound 0.08 µM) | relative viability ([2]; first compound 0.8 µM) | relative viability ([2]; first compound 2.53 µM) | relative viability ([2]; first compound 8 µM) | relative viability ([3]; first compound 0.08 µM) | relative viability ([3]; first compound 0.8 µM) | relative viability ([3]; first compound 2.53 µM) | relative viability ([3]; first compound 8 µM) | relative viability (Ruboxistaurin + AZD7762; first compound 0.08 µM) | relative viability (Ruboxistaurin + AZD7762; first compound 0.8 µM) | relative viability (Ruboxistaurin + AZD7762; first compound 2.53 µM) | relative viability (Ruboxistaurin + AZD7762; first compound 8 µM) | relative viability (Ruboxistaurin + Olaparib; first compound 0.08 µM) | relative viability (Ruboxistaurin + Olaparib; first compound 0.8 µM) | relative viability (Ruboxistaurin + Olaparib; first compound 2.53 µM) | relative viability (Ruboxistaurin + Olaparib; first compound 8 µM) |
| --- | --- | --- | --- | --- | --- | --- | --- | --- | --- | --- | --- | --- | --- | --- | --- | --- | --- | --- | --- | --- |
| EKVX | 0.414 | 0.318 | 0.424 | 0.321 | 0.945 | 0.843 | 0.919 | 0.926 | 1.08 | 0.948 | 0.971 | 0.931 | 0.607 | 0.623 | 0.649 | 0.656 | 0.923 | 0.692 | 0.929 | 0.861 |
| EMC-BAC-2 | 0.51 | 0.506 | 0.514 | 0.493 | 1.23 | 1.12 | 0.991 | 0.925 | 0.885 | 0.775 | 0.773 | 0.739 | 1.12 | 1.05 | 1.11 | 0.891 | 0.509 | 0.453 | 0.463 | 0.481 |
| EPLC-272H | 0.312 | 0.352 | 0.285 | 0.317 | 0.368 | 0.224 | 0.293 | 0.668 | 1.28 | 1.09 | 1.2 | 1.16 | 0.263 | 0.108 | 0.276 | 0.0372 | 0.846 | 0.71 | 0.918 | 0.437 |
| H3255 | 0.318 | 0.336 | 0.329 | 0.364 | 1.02 | 0.726 | 0.957 | 0.865 | 1.09 | 0.953 | 0.943 | 0.931 | 1.05 | 0.984 | 0.924 | 0.97 | 0.613 | 0.574 | 0.592 | 0.655 |
| HARA | 0.214 | 0.263 | 0.266 | 0.326 | 0.612 | 0.495 | 0.837 | 0.601 | 1.15 | 0.922 | 1.08 | 0.657 | 0.346 | 0.525 | 0.339 | 0.336 | 1.01 | 0.895 | 0.819 | 0.538 |
| HCC-15 | 0.748 | 0.694 | 0.734 | 0.745 | 0.278 | 0.329 | 0.32 | 0.716 | 0.841 | 0.834 | 0.852 | 0.776 | 1.25 | 1.2 | 1.13 | 1.25 | 0.792 | 0.651 | 0.777 | 0.867 |
| HCC-44 | 0.986 | 1 | 0.953 | 0.968 | 1.16 | 0.973 | 1.06 | 1.09 | 0.643 | 0.645 | 0.674 | 0.635 | 1.02 | 1.01 | 1.02 | 1.07 | 0.978 | 0.942 | 0.983 | 1.04 |
| HCC-78 | 0.509 | 0.47 | 0.497 | 0.501 |  |  |  |  | 0.531 | 0.501 | 0.455 | 0.482 | 0.735 | 0.549 | 0.715 | 0.536 | 0.821 | 0.762 | 0.935 | 0.746 |
